These results are taken from PubChem BioAssay AID1963874 (Molecular Pharmacology Branch, DTP, NCI, 2024).

Each structure is given as a SMILES string.

The test deals with 253994-281-T-J1-PDC KRAS-mutant spheroids with HUVEC/MSC, viability. Put plainly: Anticancer human tumor 253994-281-T-J1-PDC patient-derived colorectal carcinoma cell line growth inhibition [KRAS2]. The settings on record: for viability, T/C: stronger effect = lower value. In short, it runs like this:
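Combination screen of spheroid viability in tumor-cell co-cultures with endothelial (HUVEC) and mesenchymal stem cell stroma. Each agent was tested in half-log dilutions, topping at clinical Cmax or at 10 microM without a known Cmax.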
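Further: spheroids exposed to agents for seven days before readout.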
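Wherever viability, T/C is given: percent of DMSO vehicle control viability.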

`CCNC(=O)CC1N=C(c2ccc(Cl)cc2)c2cc(OC)ccc2-n2c(C)nnc21` (configuration not stated) + CC1OCC2(CCN(c3cnc(Sc4ccnc(N)c4Cl)c(N)n3)CC2)C1N: the IC50 – broadly, the midpoint of a concentration-inhibition curve – runs as follows: (curve of first compound, second compound 0.1 µM) > 10 µM; (curve of first compound, second compound 0.316 µM) > 10 µM; (curve of first compound, second compound 1 µM) 3.86 µM; (curve of first compound, second compound 3.16 µM) 0.648 µM; (curve of first compound, second compound 10 µM) 0.0637 µM. Besides, the viability, T/C (as a rule, the result in the treated group divided by that in the control group, in per cent) (second compound 0.1 µM, first compound 0.0316 µM) was 90.4%; the viability, T/C (second compound 0.1 µM, first compound 0.1 µM) is 100%; the viability, T/C (second compound 0.1 µM, first compound 0.316 µM) was 86.5%; the viability, T/C (second compound 0.1 µM, first compound 1 µM) was 82%; the viability, T/C (second compound 0.1 µM, first compound 3.16 µM) is 74.2%; the viability, T/C (second compound 0.1 µM, first compound 10 µM) is 67%. The viability, T/C by setting is: (second compound 0.316 µM, first compound 0.0316 µM) 85.2%; (second compound 0.316 µM, first compound 0.1 µM) 81.3%; (second compound 0.316 µM, first compound 0.316 µM) 75.5%; (second compound 0.316 µM, first compound 1 µM) 65%; (second compound 0.316 µM, first compound 3.16 µM) 74%; (second compound 0.316 µM, first compound 10 µM) 65%. The viability, T/C is 80% (second compound 1 µM, first compound 0.0316 µM); 79.9% (second compound 1 µM, first compound 0.1 µM); 79% (second compound 1 µM, first compound 0.316 µM); 64.1% (second compound 1 µM, first compound 1 µM); 54.6% (second compound 1 µM, first compound 3.16 µM); 35.1% (second compound 1 µM, first compound 10 µM). Further, the viability, T/C is, setting by setting: (second compound 3.16 µM, first compound 0.0316 µM) 61.5%; (second compound 3.16 µM, first compound 0.1 µM) 78%; (second compound 3.16 µM, first compound 0.316 µM) 61.5%; (second compound 3.16 µM, first compound 1 µM) 40.9%; (second compound 3.16 µM, first compound 3.16 µM) 34.9%; (second compound 3.16 µM, first compound 10 µM) 23.1%. The viability, T/C is, setting by setting: (second compound 10 µM, first compound 0.0316 µM) 52.8%; (second compound 10 µM, first compound 0.1 µM) 47.6%; (second compound 10 µM, first compound 0.316 µM) 43.5%; (second compound 10 µM, first compound 1 µM) 36.4%; (second compound 10 µM, first compound 3.16 µM) 26.6%; (second compound 10 µM, first compound 10 µM) 16.5%.
As for `COc1cc2nccc(Oc3ccc(NC(=O)C4(C(=O)Nc5ccc(F)cc5)CC4)cc3)c2cc1OC`, the viability, T/C is 99.7% [middle of 5 runs] (compound 0.0316 µM); 108% [middle of 5 runs] (compound 0.1 µM); 92.9% [middle of 5 runs] (compound 0.316 µM); 93.9% [middle of 5 runs] (compound 1 µM); 89.8% [middle of 5 runs] (compound 3.16 µM); 76.9% [middle of 5 runs] (compound 10 µM). Under “curve of compound”, the IC50 is > 10 µM.
